Experimental data published in article PMC5061317, “Transactivation Assays to Assess Canine and Rodent Pregnane X Receptor (PXR) and Constitutive Androstane Receptor (CAR) Activation” (PLoS ONE, 2016).
Several values for one entry are separate records, joined by “and”; a condition that tells them apart may be missing. Equal entries are not always repeated. Structures can show the parent of a compound that is named as a salt.

Key:
rat CAR3 [1] = target: T1, rat CAR3 (Rattus norvegicus, UniProt Q9QUS1, INS280APYLT); test: Rat CAR3 transactivation assay with CYP3A4 promoter/enhancer reporter (rCAR3/3A4); type: cell-based; settings: 10 μM, 48 h, above DMSO treated cells, mean ± SE
T1 construct: expressed in transfected cells; host or cells: HepG2 (transient transfection)
T1 sequence (Q9QUS1 with tags, fused parts or gaps INS280APYLT): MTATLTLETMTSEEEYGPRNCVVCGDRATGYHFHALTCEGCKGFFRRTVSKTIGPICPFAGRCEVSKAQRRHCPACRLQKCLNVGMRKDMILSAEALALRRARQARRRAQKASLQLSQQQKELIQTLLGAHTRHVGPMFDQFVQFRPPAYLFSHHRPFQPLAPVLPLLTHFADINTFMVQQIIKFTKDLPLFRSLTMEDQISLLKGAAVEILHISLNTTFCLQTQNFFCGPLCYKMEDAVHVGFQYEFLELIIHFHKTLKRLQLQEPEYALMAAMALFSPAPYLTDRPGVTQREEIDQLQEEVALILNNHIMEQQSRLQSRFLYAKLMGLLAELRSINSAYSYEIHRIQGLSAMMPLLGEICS
T1 sequence (P19793 1-462 partner): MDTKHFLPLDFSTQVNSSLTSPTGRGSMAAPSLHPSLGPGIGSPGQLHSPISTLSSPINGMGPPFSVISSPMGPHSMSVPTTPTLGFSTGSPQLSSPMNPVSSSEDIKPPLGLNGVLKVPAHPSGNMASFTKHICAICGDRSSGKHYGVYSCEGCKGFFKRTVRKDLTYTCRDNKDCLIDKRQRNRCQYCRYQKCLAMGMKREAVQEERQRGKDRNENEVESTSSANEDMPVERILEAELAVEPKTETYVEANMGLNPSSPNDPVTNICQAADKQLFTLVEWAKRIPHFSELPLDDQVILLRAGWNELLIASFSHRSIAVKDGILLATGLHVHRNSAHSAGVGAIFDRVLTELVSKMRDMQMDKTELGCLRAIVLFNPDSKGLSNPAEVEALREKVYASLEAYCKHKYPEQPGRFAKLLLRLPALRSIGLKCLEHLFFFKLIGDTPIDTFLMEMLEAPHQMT
Description: (§1) To construct an expression vector harboring canine CAR3, reference CAR sequence (CAR1) for canine (Accession number: FJ202015) was amplified from C. familiaris liver cDNA. PCR conditions were 98°C for 2 min, 30 cycles of 98°C for 30 sec and 72°C for 1 min, followed by 72°C for 7 min and cooling to 4°C. The resulting PCR product was cloned into the pCR2.1 vector for sequence analysis and subsequently cloned into a pCDNA 3.1 expression vector (Life Technologies, Carlsbad, CA). […] Canine CAR1 was mutated to obtain CAR3 by introducing […] motif. This was performed using forward primer: 5’- […] -3’ and reverse primer: 5’- […] -3’ in concert with QuikChange Lightning mutagenesis kit (Agilent) according to manufacturer’s instructions. The presence of correct canine CAR3 was verified by sequence analysis. […]
(§2) Assessment of cell viability and transcriptional activation was performed in the same wells using the CellTiter-Fluor cell viability assay and ONE-Glo Luciferase assay. Fluorescence was determined on a BioTek Synergy 2 Luminometer (BioTek Instruments, Winooski, VT) with excitation at 400 nm and emission at 510 nm. Following viability determination luminescence was monitored.
(§3) Fluorescent light units were utilized to normalize for viable cell number in the luciferase (transcriptional activation) assay and expressed as the average of three determinations/chemical agent and concentration. […]

rat CAR3 [2] = target: T1, rat CAR3; test: Rat CAR3 transactivation assay with CYP2B6 promoter/enhancer reporter (rCAR3/2B6); type: cell-based; settings: 10 μM, 48 h, above DMSO treated cells, mean ± SE
Description: as §1, §2, §3

canine PXR = test: Canine PXR transactivation assay (HepG2 transiently transfected, CYP3A4 luciferase reporter); settings: 48 h
Description: To generate canine PXR (Accession number: XM_535750.3) with a start codon replicating that of human PXR (Accession number: AY091855), a Canis lupus familiaris liver cDNA was employed as the template. PCR conditions were 98°C for 2 min, 35 cycles of 98°C for 1 min, 59°C for 1 min and 72°C for 1 min 45 sec, followed by 72°C for 7 min and cooling to 4°C.
(§4) HepG2 cells were seeded in 10-cm cell culture dishes and incubated until 60–70% confluency (about 5 days). For transfections, dishes were rinsed with phosphate buffered saline (PBS) and cells incubated for 1–4 h in OptiMEM (Life Technologies). LipofectAMINE 2000 (Life Technologies) was used at a 2:1 ratio (μl of transfection reagent to μg of DNA). For transfections involving canine and rat CAR3, 24 μg of total DNA was used (9 μg of luciferase reporter construct, 7.5 μg of either empty expression vector or CAR expression construct and 7.5 μg of the hRXRα construct). For transfections with the canine PXR, 21 μg of total DNA was employed (12 μg of luciferase reporter containing CYP3A4 proximal and distal enhancers and 9 μg of either empty expression vector or plasmid containing canine PXR). Transfected HepG2 cells were incubated at 37°C, 5% CO2 for 19–24 h. The cells were then trypsinized with TrypLE Express solution (Life Technologies) and either frozen in the presence of 10% DMSO for future use or seeded into clear bottom 96-well assay plate at a density of 5x10^4 cells/well and incubated at 37°C, 5% CO2 for 24 h.
(§5) For luciferase reporter assays involving transient transfectants, either freshly transfected cells or cells that have been stored in liquid N2 were seeded in 96-well plates as described above. For the rPXR stable cell line, cells were seeded into a 96-well plate at a density of 2x10^4 cells/well. Following a 24 h recovery, transiently transfected cells or stably integrated rat PXR cells were treated with various chemicals dissolved in DMSO in triplicate wells. Phenobarbital was the only compound that was dissolved in sterile water. […] All treatments were performed for 48 h.
as §2
(§6) Fluorescent light units were utilized to normalize for viable cell number in the luciferase (transcriptional activation) assay and expressed as the average of three determinations/chemical agent and concentration. The average luminescent units were divided by the average for solvent control to determine the fold activation. Data is expressed as mean ± standard error (SE) of three separate experiments performed in triplicate. The data was further normalized by dividing the values for each chemical by values obtained from assays with empty expression vector control. One-way multiple comparison ANOVA test in concert with Uncorrected Fisher’s LSD posttest was used to compare treatment groups with the negative controls. The significance threshold was set at p < 0.01. All statistical analyses were performed using Prism V6.0c (GraphPad, San Diego, CA). To determine receptor activation kinetics for positive controls, EC50 and EMAX values were calculated using nonlinear regression analysis of typical log dose-response curves using Prism V6.0c (GraphPad, San Diego, CA).

canine CAR3 = canine CAR3 (Canis lupus familiaris, UniProt B6E443, INS263APYLT); settings: 10 μM, 48 h, above DMSO treated cells, mean ± SE
Description: To construct an expression vector harboring canine CAR3, reference CAR sequence (CAR1) for canine (Accession number: FJ202015) was amplified from C. familiaris liver cDNA. PCR conditions were 98°C for 2 min, 30 cycles of 98°C for 30 sec and 72°C for 1 min, followed by 72°C for 7 min and cooling to 4°C. The resulting PCR product was cloned into the pCR2.1 vector for sequence analysis and subsequently cloned into a pCDNA 3.1 expression vector (Life Technologies, Carlsbad, CA). […] Canine CAR1 was mutated to obtain CAR3 by introducing […] motif. This was performed using forward primer: 5’- […] -3’ and reverse primer: 5’- […] -3’ in concert with QuikChange Lightning mutagenesis kit (Agilent) according to manufacturer’s instructions. The presence of correct canine CAR3 was verified by sequence analysis. CYP2B6 luciferase reporter vector containing the XREM-PBREM promoter and enhancer was obtained from Dr. Omiecinski (Penn State University) and has been described previously. To generate rat CAR3, a plasmid containing reference CAR (CAR1) underwent mutagenesis as described above using 5’- […] -3’ as the forward primer and 5’- […] -3’ as the reverse primer. […] Firefly luciferase reporter construct harboring CYP3A4 proximal and distal enhancer regions has been described earlier.
as §4, with “The cells were then trypsinized with TrypLE Express solution (Life Technologies) and either frozen in the presence of 10% DMSO for future use or seeded into clear bottom 96-well assay plate at a density of 5x10^4 cells/well and incubated at 37°C, 5% CO2 for 24 h.” left out
as §2, §3

rat PXR = target: T2, rat PXR (Rattus norvegicus, UniProt Q9R1A7); test: Rat PXR transactivation assay (rPXR stable cell line, CYP3A4 luciferase reporter); settings: 48 h
T2 sequence (Q9R1A7 1-431): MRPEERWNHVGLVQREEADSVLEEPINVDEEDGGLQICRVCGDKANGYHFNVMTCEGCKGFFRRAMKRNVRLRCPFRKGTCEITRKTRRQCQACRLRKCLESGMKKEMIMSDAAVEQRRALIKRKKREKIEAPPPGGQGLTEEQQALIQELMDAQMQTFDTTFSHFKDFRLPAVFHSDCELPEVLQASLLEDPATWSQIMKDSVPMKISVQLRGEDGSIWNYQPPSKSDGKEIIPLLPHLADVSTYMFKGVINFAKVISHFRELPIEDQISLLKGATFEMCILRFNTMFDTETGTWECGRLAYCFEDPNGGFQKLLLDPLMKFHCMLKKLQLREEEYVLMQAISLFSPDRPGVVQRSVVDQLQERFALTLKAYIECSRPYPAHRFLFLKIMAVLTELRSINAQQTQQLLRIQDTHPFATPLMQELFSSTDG
Description: Human hepatoma cell line, HepG2 was obtained from American Type Culture Collection (Rockville, MD) and maintained in DMEM supplemented with 10% FBS, 100 U/ml penicillin and 100 μg /ml streptomycin at 37°C, 5% CO2. The stable cell line, rPXR, harboring rat PXR and the CYP3A4 promoter and enhancer linked to luciferase was produced and maintained as described previously.
as §5, §2, §6

[3] = 10 μM, above DMSO treated cells, mean ± SE
[4] = 100 μM, above DMSO treated cells, mean ± SE
[5] = panel of 19 compounds, concentration not given

Chain of canine CAR3 (B6E443 entry or part of it INS263APYLT, one chain of several): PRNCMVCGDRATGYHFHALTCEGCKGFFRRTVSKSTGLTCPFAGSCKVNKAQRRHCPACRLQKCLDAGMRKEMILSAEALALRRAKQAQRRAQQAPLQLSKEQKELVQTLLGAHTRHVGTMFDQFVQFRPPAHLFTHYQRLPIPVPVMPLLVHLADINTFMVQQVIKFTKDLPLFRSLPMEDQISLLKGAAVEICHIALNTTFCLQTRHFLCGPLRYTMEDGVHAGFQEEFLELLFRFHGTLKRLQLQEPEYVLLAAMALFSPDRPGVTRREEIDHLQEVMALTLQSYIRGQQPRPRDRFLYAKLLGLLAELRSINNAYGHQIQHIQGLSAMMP

Structure (SMILES): O=c1cc(-c2ccccc2)oc2c1ccc1ccccc12 [ANF, α-naphthoflavone]
- Rat CAR3 Fold Activation, CYP3A4 promoter and enhancer (rat CAR3 [1]): negligible effect
- Rat CAR3 Fold Activation, CYP2B6 promoter and enhancer (rat CAR3 [2]): 3.4 ± 0.8 fold and 3.4 ± 0.8^c fold

Structure (SMILES): Clc1ccc(-c2nc3sccn3c2C=NOCc2ccc(Cl)c(Cl)c2)cc1 [CITCO, 6-(4-Chlorophenyl)imidazo[2,1-b][1,3]thiazole-5-carbaldehyde O-(3,4-dichlorobenzyl)oxime]
- Canine PXR Fold Activation (canine PXR; [3]): 5.4 ± 2.1 fold

Structure (SMILES): CCCCC(CC)COC(=O)c1ccccc1C(=O)OCC(CC)CCCC (stereo not shown) [DEHP, bis (2-ethylhexyl) phthalate]
- Canine CAR3 Fold Activation, CYP2B6 promoter and enhancer (canine CAR3): 4.3 ± 0.8 fold and 4.3 ± 0.8^c fold
- Canine CAR3 Fold Activation, CYP3A4 promoter and enhancer (canine CAR3): significant activation only when the CYP2B6 promoter was used
- Rat PXR Fold Activation (rat PXR; [3]): -

Structure (SMILES): O=C1Nc2ccc(Cl)cc2[C@@](C#CC2CC2)(C(F)(F)F)O1 [Efavirenz, efavirenz]
- Rat PXR Fold Activation (rat PXR; rat, 10 μM): 7.5 ± 2.3 fold
- Rat CAR3 Fold Activation, CYP3A4 promoter and enhancer (rat CAR3 [1]): 7.4 ± 3.3 fold
- Rat CAR3 Fold Activation, CYP2B6 promoter and enhancer (rat CAR3 [2]): 3.9 ± 0.6 fold

Structure (SMILES): C=C[C@@]1(C)CC(=O)[C@]2(O)[C@@]3(C)[C@@H](O)CCC(C)(C)[C@@H]3[C@H](O)[C@H](OC(C)=O)[C@@]2(C)O1 [Forskolin, forskolin]
- Rat PXR Fold Activation (rat PXR; rat, 10 μM): 5.8 ± 0.5 fold
- Canine PXR Fold Activation (canine PXR; [3]): 5.6 ± 1.4 fold

Structure (SMILES): COc1ccc2[nH]c([S+]([O-])Cc3ncc(C)c(OC)c3C)nc2c1 (stereo not shown) [Omeprazole, omeprazole]
- Rat PXR Fold Activation (rat PXR; rat, 100 μM): 9.8 ± 0.9 fold
- Canine PXR Fold Activation (canine PXR; [4]): 9.6 ± 1.3 fold

Structure (SMILES): CCC1(c2ccccc2)C(=O)NC(=O)NC1=O [Phenobarbital, phenobarbital sodium salt]
- Rat PXR activation (rat PXR; 1 mM, vehicle water): failed to elicit significant activation
- Rat PXR activation (rat PXR; [5]): failed to elicit a significant activation
- Canine PXR Fold Activation (canine PXR; [5]): failed to elicit a significant activation

Structure (SMILES): CC(=O)[C@H]1[C@H](C#N)C[C@H]2[C@@H]3CC=C4C[C@@H](O)CC[C@]4(C)[C@H]3CC[C@@]21C [Pregnenolone 16α carbonitrile, pregnenolone-16 α -carbonitrile]
- Emax, rat PXR activation (rat PXR; dose-response curve, above 0.1% DMSO): 11.4 fold
- EC50 (rat PXR; read-out: EC50, rat PXR activation, dose-response curve, nonlinear regression): 140 nM

Structure (SMILES): CCOP(=O)(OCC)C(=Cc1cc(C(C)(C)C)c(O)c(C(C)(C)C)c1)P(=O)(OCC)OCC [SR12813, tetraethyl 2-(3,5-di-tert-butyl-4-hydroxyphenyl)ethenyl-1,1-bisphosphonate]
- Canine CAR3 Fold Activation, CYP2B6 promoter and enhancer (canine CAR3): activation only in the presence of the CYP3A4 promoter
- Canine CAR3 Fold Activation, CYP3A4 promoter and enhancer (canine CAR3): 3.1 ± 0.7 fold and 3.1 ± 0.7^d fold
- Rat PXR Fold Activation (rat PXR; [3]): 6.1 ± 0.6 fold
- Canine PXR Fold Activation (canine PXR; [3]): 60.1 ± 3.1 fold
- Emax, canine PXR activation (canine PXR; dose-response 0.1 to 30 μM, above 0.1% DMSO): 60.3 ± 5.5 fold and 60.3 fold
- EC50 (canine PXR; read-out: EC50, canine PXR activation, dose-response 0.1 to 30 μM, nonlinear regression): 1900 ± 200 nM

Structure (SMILES): Clc1cnc(Oc2ccc(Oc3ncc(Cl)cc3Cl)cc2)c(Cl)c1 [TCPOBOP, 1,4-Bis-[2-(3,5-dichloropyridyloxy)]benzene, 3,3′,5,5′-Tetrachloro-1,4-bis(pyridyloxy)benzene]
- Rat PXR Fold Activation (rat PXR; [3]): failed to elicit significant activation

Structure (SMILES): O=C1NC(=O)C(c2ccccc2)(c2ccccc2)N1 [phenytoin]
- Rat PXR Fold Activation (rat PXR; [4]): failed to elicit significant activation
- Rat PXR activation (rat PXR; [5]): failed to elicit a significant activation
- Canine PXR Fold Activation (canine PXR; [5]): failed to elicit a significant activation
